# Data published in paper doi:10.1101/2025.02.15.638425v1, “Synthesis and Biological Evaluation of Nipecotic Acid Derivatives with Terminally Double-Substituted Allenic Spacers as mGAT4 Inhibitors” (biorxiv, 2025).
# Experiments:
# mGAT1 [1] = molecular target: T1, mGAT1 (Mus musculus, UniProt P31648); test: competitive MS Binding Assay, NO711 marker, HEK293 membranes
# T1 construct: gene Slc6a1; full-length transporter stably expressed in HEK293 cells
# Text: competitive MS Binding Assay, NO711 marker, HEK293 membranes on mGAT1
# mGAT2 = molecular target: T2, mGAT2 (Mus musculus, UniProt P31651); test: [3H]GABA uptake, intact HEK293 cells; assay type: cell-based
# T2 construct: gene Slc6a12; full-length transporter stably expressed in HEK293 cells; mouse nomenclature, equivalent of hBGT-1
# T2 sequence (P31651 1-614): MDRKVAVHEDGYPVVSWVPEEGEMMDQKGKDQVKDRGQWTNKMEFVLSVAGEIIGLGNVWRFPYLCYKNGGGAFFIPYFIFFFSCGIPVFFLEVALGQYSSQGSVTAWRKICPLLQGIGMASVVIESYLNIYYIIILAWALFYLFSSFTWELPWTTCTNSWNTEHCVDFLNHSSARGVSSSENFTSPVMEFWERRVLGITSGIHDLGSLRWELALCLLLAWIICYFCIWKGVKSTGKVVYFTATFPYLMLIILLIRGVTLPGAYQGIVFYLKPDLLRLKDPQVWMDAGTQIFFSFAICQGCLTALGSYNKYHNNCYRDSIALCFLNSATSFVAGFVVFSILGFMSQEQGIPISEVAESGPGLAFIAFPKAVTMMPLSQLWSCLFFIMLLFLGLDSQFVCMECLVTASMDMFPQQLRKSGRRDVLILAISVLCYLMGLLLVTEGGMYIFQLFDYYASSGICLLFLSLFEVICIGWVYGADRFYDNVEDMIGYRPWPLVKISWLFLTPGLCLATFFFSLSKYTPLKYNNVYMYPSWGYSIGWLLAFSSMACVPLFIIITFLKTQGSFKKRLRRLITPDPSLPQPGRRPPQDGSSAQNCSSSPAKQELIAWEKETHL
# Text: [3H]GABA uptake, intact HEK293 cells on mGAT2
# mGAT4 [2] = molecular target: T3, mGAT4 (Mus musculus, UniProt P31650); test: [3H]GABA uptake, intact HEK293 cells; assay type: cell-based
# T3 construct: gene Slc6a11; full-length transporter stably expressed in HEK293 cells
# T3 sequence (P31650 1-627): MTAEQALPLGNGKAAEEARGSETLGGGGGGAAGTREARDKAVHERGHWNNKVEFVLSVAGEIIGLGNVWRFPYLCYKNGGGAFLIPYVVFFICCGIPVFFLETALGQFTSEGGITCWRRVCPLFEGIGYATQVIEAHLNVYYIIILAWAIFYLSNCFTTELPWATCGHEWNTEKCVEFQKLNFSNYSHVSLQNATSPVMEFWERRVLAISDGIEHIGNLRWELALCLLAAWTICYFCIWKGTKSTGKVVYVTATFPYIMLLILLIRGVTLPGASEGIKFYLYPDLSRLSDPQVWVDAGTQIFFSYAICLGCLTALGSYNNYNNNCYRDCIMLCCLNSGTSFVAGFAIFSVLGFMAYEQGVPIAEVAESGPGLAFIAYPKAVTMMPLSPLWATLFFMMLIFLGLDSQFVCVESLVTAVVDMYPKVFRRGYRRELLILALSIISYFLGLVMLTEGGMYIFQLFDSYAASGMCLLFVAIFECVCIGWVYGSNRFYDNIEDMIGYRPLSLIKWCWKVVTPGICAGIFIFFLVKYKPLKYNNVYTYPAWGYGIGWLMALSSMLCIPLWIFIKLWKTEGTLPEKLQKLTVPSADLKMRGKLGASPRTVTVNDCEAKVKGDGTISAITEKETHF
# mGAT3 = molecular target: T4, mGAT3 (Mus musculus, UniProt P31649); test: [3H]GABA uptake, intact HEK293 cells; assay type: cell-based
# T4 construct: gene Slc6a13; full-length transporter stably expressed in HEK293 cells; mouse nomenclature, equivalent of hGAT-2
# T4 sequence (P31649 1-602): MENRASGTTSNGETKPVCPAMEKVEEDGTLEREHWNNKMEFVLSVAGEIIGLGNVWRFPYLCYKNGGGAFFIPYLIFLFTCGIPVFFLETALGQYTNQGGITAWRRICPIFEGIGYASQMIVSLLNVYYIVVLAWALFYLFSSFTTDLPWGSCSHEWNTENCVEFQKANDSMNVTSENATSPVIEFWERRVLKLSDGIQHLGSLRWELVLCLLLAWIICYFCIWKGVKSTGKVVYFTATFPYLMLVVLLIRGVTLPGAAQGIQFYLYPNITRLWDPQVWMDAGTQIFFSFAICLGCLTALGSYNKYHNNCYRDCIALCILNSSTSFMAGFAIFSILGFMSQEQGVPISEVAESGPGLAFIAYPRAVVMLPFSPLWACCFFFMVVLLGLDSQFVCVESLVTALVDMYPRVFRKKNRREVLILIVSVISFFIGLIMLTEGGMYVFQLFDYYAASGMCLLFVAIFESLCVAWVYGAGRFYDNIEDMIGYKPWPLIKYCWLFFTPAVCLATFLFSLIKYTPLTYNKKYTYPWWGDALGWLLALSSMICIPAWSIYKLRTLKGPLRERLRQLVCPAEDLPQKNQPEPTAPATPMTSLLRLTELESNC
# Text: [3H]GABA uptake, intact HEK293 cells on mGAT3
# mGAT1 [3] = molecular target: T1, mGAT1; test: [3H]GABA uptake, intact HEK293 cells; assay type: cell-based
# Text: [3H]GABA uptake, intact HEK293 cells on mGAT1
# hGAT-3 = molecular target: T5, hGAT-3 (Homo sapiens, UniProt P48066); test: MS Transport Assay (GABA transport), COS-7 cells; assay type: cell-based
# T5 construct: gene SLC6A11; full-length transporter stably expressed in COS-7 cells
# T5 sequence (P48066 1-632): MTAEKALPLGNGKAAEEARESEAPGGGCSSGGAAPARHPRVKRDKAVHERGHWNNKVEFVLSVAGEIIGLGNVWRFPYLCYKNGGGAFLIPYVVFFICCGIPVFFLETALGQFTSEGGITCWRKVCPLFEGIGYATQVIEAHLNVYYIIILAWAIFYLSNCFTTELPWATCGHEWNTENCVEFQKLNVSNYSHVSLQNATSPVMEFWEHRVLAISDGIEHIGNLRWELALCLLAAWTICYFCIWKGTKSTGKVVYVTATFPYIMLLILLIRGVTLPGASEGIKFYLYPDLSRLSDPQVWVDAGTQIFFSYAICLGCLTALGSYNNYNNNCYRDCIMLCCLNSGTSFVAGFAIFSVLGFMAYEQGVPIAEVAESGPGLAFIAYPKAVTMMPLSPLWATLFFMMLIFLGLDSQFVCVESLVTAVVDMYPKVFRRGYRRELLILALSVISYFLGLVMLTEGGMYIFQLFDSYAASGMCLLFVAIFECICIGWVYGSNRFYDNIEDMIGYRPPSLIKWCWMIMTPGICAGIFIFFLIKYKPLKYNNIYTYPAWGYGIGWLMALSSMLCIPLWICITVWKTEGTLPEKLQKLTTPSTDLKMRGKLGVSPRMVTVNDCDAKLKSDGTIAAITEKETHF
# Text: MS Transport Assay (GABA transport), COS-7 cells on hGAT-3
# mGAT4 [4] = molecular target: T3, mGAT4; test: [3H]GABA uptake, intact HEK293 cells; assay type: cell-based; remark: listed apart in the source
# Text: [3H]GABA uptake, intact HEK293 cells on mGAT4
SMILES,Ki (mGAT1 [1]) [µM],IC50 (mGAT2) [µM],IC50 (mGAT4 [2]) [µM],IC50 (mGAT3) [µM],IC50 (mGAT1 [3]) [µM],IC50 (hGAT-3) [µM],remaining activity at 100 µM (mGAT4 [4]) [%],remaining activity at 100 µM (mGAT3) [%]
"COc1ccc2c(c1)CCCC2=C=CCN1CCCC(C(=O)O)C1 (racemic) [8g, rac-[(Ra)-1-{3-[6-methoxy-3,4-dihydronaphthalen-1(2H)-ylidene]allyl}-(3R)-piperidine-3-carboxylic acid] [rac-(3R,Ra)-8g] and rac-[(Sa)-1-{3-[6-methoxy-3,4-dihydronaphthalen-1(2H)-ylidene]allyl}-(3R)-piperidine-3-carboxylic acid]]",58.9,,,,13.5,,70,
"Cc1ccc(C(=C=CCN2CCCC(C(=O)O)C2)c2ccc(C)cc2)cc1 (racemic) [rac-8b, rac-[1-(4,4-Di-p-tolylbuta-2,3-dien-1-yl)piperidine-3-carboxylic acid]]",1.38,27.5,11.5,10.5,6.46,,,
"O=C(O)C1CCCN(CCC=C=C(c2ccccc2)c2ccccc2)C1 (racemic) [rac-11a, rac-[1-(5,5-Diphenylpenta-3,4-dien-1-yl)piperidine-3-carboxylic acid]]",5.5,178,,129,24.5,,64,
"Cc1ccc(C(=C=CCCN2CCCC(C(=O)O)C2)c2ccc(C)cc2)cc1 (racemic) [rac-11b, rac-[1-(5,5-Di-p-tolylpenta-3,4-dien-1-yl)piperidine-3-carboxylic acid]]",1.58,81.3,83.2,58.9,14.1,,,
"O=C(O)C1CCCN(CCC=C=C(c2ccc(F)cc2)c2ccc(F)cc2)C1 (racemic) [rac-11c, rac-{1-[5,5-Bis(4-fluorophenyl)penta-3,4-dien-1-yl]piperidine-3-carboxylic acid}]",3.24,,,,12.9,,63,50
"O=C(O)[C@H]1CCCN(CC=C=C(c2ccc(Cl)cc2)c2ccc(Cl)cc2)C1 [(S)-8d, (S)-1-[4,4-bis(4-chlorophenyl)buta-2,3-dien-1-yl]piperidine-3-carboxylic acid]",2.51,4.07,0.257,1.1,1.35,0.324,,

# Stronger by Ki (mGAT1 [1]), values ahead:
Ki (mGAT1 [1]) [µM],IC50 (mGAT2) [µM],IC50 (mGAT4 [2]) [µM],IC50 (mGAT3) [µM],IC50 (mGAT1 [3]) [µM],IC50 (hGAT-3) [µM],remaining activity at 100 µM (mGAT4 [4]) [%],remaining activity at 100 µM (mGAT3) [%],SMILES
1.23,6.46,4.47,8.32,5.01,1.66,,,"O=C(O)C1CCCN(CC=C=C(c2ccccc2)c2ccc(-c3ccccc3)cc2)C1 (racemic) [8f, rac-{(Ra)-1-[4-(1,1’-biphenyl-4-yl)-4-phenylbuta-2,3-dien-1-yl]-(3R)-piperidine-3-carboxylic acid} [rac-(3R,Ra)-8f] and rac-{(Sa)-1-[4-(1,1’-biphenyl-4-yl)-4-phenylbuta-2,3-dien-1-yl]-(3R)-piperidine-3-carboxylic acid}]"
1.17,,,,7.41,,82,,"O=C(O)C1CCCN(CC=C=C(c2ccccc2)c2ccccc2)C1 (racemic) [rac-8a, rac-[1-(4,4-Diphenylbuta-2,3-dien-1-yl)piperidine-3-carboxylic acid]]"
0.891,12.3,12.6,10.2,4.68,6.17,,,"O=C(O)C1CCCN(CCC=C=C(c2ccccc2)c2ccc(-c3ccccc3)cc2)C1 (racemic) [11f, rac-{(Ra)-1-[5-(1,1’-biphenyl-4-yl)-5-phenylpenta-3,4-dien-1-yl]-(3R)-piperidine-3-carboxylic acid} [rac-(3R,Ra)-11f] and rac-{(Sa)-1-[5-(1,1’-biphenyl-4-yl)-5-phenylpenta-3,4-dien-1-yl]-(3R)-piperidine-3-carboxylic acid}]"
0.631,12,17,28.2,1.91,,,,"O=C(O)C1CCCN(CCC=C=C(c2ccc(Cl)cc2)c2ccc(Cl)cc2)C1 (racemic) [rac-11d, rac-{1-[5,5-Bis(4-chlorophenyl)penta-3,4-dien-1-yl]piperidine-3-carboxylic acid}]"
0.562,79.4,30.2,69.2,1.07,,,,"O=C(O)C1CCCN(CC=C=C(c2ccc(F)cc2)c2ccc(F)cc2)C1 (racemic) [rac-8c, rac-{1-[4,4-Bis(4-fluorophenyl)buta-2,3-dien-1-yl]piperidine-3-carboxylic acid}]"
0.155,7.59,0.832,2.95,0.372,0.447,,,O=C(O)C1CCCN(CC=C=C(c2ccc(Cl)cc2)c2ccc(Cl)cc2)C1 (racemic) [rac-8d]
0.102,15.8,2,4.17,0.155,2.4,,,O=C(O)[C@@H]1CCCN(CC=C=C(c2ccc(Cl)cc2)c2ccc(Cl)cc2)C1 [(R)-8d]
